Counter-ions that a name gives are not always drawn.
How the values were obtained:
Experiment in all cases: isoTOP-ABPP of compound-treated primary human T cells
Assay type in all cases: cell-based
[1] = target: Cys residues in primary human T cells (Homo sapiens, UniProt Q96CW5); conditions: TUBGCP3 C194 (Q960W5)
[2] = target: T1, Cys residues in primary human T cells (Homo sapiens, UniProt P54136); conditions: RARS C32 (P54136)
T1 sequence (P54136 1-660): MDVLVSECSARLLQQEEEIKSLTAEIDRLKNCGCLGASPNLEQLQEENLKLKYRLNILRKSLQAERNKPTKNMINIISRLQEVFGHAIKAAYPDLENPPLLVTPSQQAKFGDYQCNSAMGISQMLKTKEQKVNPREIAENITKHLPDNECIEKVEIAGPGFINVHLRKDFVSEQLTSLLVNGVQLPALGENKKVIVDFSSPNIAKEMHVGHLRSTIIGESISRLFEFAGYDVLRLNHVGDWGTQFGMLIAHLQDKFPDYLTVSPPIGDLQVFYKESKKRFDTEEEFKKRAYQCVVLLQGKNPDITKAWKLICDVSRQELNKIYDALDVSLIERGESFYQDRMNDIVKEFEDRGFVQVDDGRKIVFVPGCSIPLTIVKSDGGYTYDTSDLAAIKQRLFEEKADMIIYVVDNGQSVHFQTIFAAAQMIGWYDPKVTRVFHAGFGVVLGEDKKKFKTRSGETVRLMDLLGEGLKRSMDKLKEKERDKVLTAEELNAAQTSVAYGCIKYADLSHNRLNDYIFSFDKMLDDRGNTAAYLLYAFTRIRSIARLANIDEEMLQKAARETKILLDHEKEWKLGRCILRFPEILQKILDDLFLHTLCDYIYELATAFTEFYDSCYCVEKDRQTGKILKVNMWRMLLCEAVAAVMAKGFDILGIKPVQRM

[3] = system: Cys residues in primary human T cells; conditions: 4 h
[4] = target: T2, Cys residues in primary human T cells (Homo sapiens, UniProt Q9Y277)
T2 sequence (Q9Y277 1-283): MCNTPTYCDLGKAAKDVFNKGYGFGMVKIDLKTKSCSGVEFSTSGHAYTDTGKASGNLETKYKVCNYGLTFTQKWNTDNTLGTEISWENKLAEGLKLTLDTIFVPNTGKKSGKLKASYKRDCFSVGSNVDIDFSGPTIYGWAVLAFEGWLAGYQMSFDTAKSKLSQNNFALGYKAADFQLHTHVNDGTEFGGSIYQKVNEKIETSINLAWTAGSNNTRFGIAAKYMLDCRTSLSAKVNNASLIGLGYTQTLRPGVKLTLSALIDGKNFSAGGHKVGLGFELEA

[5] = target: Cys residues in primary human T cells (Homo sapiens, UniProt O14976); conditions: GAK C87 (O14976)
[6] = target: Cys residues in primary human T cells (Homo sapiens, UniProt Q96FV9); conditions: THOC1 C49 (Q96FV9)
[7] = target: Cys residues in primary human T cells (Homo sapiens, UniProt Q5T4S7); conditions: UBR4 C2554 (Q5T4S7)
Cys residues in primary human T cells (Homo sapiens, UniProt Q5T4S7), sequence (Q5T4S7 whole entry): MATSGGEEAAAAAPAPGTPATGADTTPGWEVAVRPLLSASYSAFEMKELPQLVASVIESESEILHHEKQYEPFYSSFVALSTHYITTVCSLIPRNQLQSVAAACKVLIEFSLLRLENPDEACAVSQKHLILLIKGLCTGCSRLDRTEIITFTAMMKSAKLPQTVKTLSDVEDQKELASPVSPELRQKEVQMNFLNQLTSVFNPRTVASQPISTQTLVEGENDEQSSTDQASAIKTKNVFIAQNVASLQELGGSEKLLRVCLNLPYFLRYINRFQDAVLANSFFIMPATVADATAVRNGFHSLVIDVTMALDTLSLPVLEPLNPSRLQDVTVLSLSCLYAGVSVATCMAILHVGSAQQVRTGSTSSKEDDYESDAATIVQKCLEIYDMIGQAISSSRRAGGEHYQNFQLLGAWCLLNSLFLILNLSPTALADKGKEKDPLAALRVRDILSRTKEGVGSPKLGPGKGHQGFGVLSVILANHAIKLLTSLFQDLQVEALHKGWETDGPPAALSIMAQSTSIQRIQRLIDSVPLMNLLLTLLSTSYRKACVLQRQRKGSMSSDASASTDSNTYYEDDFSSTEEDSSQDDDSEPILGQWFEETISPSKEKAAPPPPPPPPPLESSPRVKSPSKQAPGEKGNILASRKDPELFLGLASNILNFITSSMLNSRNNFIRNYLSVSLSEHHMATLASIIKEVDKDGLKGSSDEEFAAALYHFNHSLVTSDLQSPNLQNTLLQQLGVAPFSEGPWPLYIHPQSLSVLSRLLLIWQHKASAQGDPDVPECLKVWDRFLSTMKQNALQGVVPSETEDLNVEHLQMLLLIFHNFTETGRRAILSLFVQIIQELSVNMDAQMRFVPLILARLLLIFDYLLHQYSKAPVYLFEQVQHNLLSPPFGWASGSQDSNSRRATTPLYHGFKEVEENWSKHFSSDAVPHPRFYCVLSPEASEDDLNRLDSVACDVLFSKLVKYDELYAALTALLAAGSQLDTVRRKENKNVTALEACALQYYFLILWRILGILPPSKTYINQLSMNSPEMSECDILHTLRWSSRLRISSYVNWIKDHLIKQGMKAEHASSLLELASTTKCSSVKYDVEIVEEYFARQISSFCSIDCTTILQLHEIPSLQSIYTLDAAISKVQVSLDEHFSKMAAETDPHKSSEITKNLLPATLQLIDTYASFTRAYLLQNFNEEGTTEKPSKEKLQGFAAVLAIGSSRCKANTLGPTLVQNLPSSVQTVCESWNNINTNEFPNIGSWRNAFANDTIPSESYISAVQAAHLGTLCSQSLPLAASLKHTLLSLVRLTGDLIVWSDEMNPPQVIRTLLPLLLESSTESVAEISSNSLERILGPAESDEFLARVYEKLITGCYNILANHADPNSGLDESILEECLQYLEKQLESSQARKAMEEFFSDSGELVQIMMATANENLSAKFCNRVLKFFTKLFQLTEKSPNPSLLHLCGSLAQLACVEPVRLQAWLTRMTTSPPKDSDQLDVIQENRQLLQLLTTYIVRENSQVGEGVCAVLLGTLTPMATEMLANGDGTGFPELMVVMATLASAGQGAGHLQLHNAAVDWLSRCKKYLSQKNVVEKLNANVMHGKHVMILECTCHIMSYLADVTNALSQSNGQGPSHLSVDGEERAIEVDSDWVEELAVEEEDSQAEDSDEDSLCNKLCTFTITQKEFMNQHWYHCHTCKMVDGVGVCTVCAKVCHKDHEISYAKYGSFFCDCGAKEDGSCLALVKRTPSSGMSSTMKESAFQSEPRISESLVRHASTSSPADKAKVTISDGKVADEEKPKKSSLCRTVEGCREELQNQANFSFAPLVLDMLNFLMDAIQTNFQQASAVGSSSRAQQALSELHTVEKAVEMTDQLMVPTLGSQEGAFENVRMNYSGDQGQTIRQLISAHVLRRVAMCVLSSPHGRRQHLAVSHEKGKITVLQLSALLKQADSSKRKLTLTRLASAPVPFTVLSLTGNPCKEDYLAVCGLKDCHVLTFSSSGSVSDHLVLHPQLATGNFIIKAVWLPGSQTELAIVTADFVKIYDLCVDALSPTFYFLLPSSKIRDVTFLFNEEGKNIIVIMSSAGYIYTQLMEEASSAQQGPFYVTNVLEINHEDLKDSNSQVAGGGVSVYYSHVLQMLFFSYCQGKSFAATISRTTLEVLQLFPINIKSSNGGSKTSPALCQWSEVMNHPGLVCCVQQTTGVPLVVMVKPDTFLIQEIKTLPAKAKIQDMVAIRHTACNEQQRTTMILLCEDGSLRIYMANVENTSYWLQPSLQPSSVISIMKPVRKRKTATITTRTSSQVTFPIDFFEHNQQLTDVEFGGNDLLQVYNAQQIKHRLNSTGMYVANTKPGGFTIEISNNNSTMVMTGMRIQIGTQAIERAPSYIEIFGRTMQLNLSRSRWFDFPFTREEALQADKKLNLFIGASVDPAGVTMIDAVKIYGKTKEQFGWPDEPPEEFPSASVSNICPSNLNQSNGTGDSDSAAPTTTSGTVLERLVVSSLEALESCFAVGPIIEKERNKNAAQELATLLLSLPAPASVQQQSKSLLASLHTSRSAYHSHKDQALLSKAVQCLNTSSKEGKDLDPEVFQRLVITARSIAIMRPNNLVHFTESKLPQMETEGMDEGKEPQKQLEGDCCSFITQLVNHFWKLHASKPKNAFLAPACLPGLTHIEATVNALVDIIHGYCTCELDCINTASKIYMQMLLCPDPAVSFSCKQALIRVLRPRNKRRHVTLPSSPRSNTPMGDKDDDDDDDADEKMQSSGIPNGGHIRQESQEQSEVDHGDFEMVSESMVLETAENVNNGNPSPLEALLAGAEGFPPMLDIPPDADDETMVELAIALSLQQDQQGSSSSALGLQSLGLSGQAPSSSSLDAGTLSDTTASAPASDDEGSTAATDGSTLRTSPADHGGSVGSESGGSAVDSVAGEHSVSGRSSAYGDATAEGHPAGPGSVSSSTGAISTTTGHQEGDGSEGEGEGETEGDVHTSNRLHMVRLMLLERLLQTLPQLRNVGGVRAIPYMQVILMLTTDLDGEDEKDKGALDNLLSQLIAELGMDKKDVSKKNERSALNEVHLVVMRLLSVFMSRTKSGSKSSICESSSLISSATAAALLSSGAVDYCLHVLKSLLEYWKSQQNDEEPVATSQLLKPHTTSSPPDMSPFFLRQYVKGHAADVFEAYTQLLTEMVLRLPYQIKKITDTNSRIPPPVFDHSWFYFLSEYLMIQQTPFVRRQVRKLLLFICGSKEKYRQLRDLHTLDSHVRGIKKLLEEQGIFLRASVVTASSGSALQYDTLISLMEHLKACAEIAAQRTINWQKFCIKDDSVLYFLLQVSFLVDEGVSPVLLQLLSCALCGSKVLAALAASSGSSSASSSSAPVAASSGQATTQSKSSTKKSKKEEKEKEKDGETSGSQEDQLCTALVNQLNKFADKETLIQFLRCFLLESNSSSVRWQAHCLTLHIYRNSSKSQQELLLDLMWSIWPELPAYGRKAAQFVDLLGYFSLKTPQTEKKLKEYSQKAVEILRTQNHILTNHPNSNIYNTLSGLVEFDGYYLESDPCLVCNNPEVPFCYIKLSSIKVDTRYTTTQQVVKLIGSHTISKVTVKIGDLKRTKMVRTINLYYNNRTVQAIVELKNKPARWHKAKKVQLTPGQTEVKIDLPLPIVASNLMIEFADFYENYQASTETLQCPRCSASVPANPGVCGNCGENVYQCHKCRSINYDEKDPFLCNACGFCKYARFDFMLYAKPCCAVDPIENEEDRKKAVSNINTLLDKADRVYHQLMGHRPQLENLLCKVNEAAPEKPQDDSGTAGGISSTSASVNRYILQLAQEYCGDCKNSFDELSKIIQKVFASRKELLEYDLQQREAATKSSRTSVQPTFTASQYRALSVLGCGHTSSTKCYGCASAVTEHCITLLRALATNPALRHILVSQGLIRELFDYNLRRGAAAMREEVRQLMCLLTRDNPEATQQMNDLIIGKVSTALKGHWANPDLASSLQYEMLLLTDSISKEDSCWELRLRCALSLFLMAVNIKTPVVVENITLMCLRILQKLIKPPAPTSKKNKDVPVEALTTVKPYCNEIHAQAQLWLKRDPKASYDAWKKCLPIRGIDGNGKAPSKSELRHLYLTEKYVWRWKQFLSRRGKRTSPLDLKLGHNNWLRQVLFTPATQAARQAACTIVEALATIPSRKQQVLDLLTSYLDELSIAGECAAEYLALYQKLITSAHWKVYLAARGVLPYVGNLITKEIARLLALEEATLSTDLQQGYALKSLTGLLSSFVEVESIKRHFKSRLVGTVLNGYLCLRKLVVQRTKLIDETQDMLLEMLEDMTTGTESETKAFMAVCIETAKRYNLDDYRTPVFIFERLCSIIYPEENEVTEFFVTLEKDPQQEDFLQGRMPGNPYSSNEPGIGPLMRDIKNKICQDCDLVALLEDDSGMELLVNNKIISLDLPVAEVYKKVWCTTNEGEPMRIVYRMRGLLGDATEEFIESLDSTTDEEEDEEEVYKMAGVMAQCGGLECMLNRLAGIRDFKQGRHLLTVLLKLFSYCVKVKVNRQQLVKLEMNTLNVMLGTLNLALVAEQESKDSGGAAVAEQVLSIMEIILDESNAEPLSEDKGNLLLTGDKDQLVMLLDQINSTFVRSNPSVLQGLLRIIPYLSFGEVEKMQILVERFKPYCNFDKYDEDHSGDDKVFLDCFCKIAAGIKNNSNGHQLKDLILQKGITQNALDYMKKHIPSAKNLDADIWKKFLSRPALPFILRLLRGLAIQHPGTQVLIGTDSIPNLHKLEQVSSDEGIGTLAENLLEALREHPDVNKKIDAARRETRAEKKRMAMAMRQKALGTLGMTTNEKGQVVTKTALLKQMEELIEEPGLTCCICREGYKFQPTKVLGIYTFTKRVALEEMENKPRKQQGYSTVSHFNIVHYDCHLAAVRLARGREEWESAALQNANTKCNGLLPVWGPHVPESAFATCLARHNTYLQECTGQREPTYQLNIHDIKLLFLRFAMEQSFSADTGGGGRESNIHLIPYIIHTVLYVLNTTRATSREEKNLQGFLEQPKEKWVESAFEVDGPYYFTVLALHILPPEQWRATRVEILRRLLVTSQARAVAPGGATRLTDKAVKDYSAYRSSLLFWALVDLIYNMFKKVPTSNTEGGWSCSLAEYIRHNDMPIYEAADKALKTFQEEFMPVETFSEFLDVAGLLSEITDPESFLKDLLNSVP

[8] = target: T3, Cys residues in primary human T cells (Homo sapiens, UniProt P29590); conditions: PML C479 (P29590)
T3 sequence (P29590 1-882): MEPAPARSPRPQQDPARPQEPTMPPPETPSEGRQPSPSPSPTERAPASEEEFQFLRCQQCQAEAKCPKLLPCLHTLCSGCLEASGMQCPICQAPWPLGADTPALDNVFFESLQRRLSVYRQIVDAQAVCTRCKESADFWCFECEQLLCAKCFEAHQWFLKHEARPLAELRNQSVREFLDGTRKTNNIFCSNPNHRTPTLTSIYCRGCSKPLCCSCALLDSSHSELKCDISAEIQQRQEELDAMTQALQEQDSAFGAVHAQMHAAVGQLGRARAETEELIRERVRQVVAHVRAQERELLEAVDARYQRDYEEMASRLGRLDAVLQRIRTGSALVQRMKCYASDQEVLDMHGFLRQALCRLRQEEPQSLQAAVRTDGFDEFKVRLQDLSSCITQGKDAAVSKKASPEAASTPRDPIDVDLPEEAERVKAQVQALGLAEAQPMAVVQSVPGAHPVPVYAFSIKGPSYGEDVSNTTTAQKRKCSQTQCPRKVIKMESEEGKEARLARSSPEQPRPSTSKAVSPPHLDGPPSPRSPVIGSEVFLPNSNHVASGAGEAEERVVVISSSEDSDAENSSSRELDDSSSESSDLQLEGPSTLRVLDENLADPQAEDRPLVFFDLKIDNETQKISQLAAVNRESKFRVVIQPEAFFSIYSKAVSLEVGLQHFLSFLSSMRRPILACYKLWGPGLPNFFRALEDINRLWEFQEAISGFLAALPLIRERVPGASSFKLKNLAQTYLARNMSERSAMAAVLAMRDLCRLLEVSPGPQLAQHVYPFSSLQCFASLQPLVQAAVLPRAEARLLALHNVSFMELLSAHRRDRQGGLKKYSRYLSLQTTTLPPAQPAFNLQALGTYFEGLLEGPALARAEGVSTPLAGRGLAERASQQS

[9] = target: Cys residues in primary human T cells (Homo sapiens, UniProt Q7Z4W1); conditions: DCXR C244 (Q7Z4W1)

Structure (SMILES): COC(=O)/C=C/C(=O)OC [DMF, dimethyl fumarate]
- R value (DMSO/DMF) ([1]; DMF 50 μM 2h): 2.44
- R value (DMSO/DMF) ([1]; DMF 50 μM 4h): 4.94
- R value (DMSO/DMF) ([2]; DMF 10 μM 4h): 0.62
- R value (DMSO/DMF) ([2]; DMF 25 μM 4h): 4.03
- R value (DMSO/DMF) ([2]; DMF 50 μM 1h): 2.58
- R value (DMSO/DMF) ([2]; DMF 50 μM 2h): 3.58
- R value (DMSO/DMF) ([2]; DMF 50 μM 4h): 5.02
- DMF-sensitive Cys residues detected ([3]; 10 μM): very few
- number of Cys residues with R value >4 (of more than 2400 quantified) ([3]; 50 μM): ~40
- R value (DMSO/DMF) ([4]; VDAC3 C36 (Q9Y277), DMF 50 μM 1h): 3.21
- R value (DMSO/DMF) ([4]; VDAC3 C36 (Q9Y277), DMF 50 μM 2h): 3.98
- R value (DMSO/DMF) ([4]; VDAC3 C36 (Q9Y277), DMF 50 μM 4h): 4.11
- R value (DMSO/DMF) ([4]; VDAC3 C65 (Q9Y277), DMF 10 μM 4h): 1.73
- R value (DMSO/DMF) ([4]; VDAC3 C65 (Q9Y277), DMF 25 μM 4h): 5.64
- R value (DMSO/DMF) ([4]; VDAC3 C65 (Q9Y277), DMF 50 μM 1h): 3.35
- R value (DMSO/DMF) ([4]; VDAC3 C65 (Q9Y277), DMF 50 μM 2h): 7.53
- R value (DMSO/DMF) ([4]; VDAC3 C65 (Q9Y277), DMF 50 μM 4h): 15.94
- R value (DMSO/DMF) ([5]; DMF 10 μM 4h): 1.36
- R value (DMSO/DMF) ([5]; DMF 50 μM 2h): 4.79
- R value (DMSO/DMF) ([6]; DMF 50 μM 1h): 3.93
- R value (DMSO/DMF) ([6]; DMF 50 μM 2h): 5.7
- R value (DMSO/DMF) ([7]; DMF 10 μM 4h): 1.52
- R value (DMSO/DMF) ([7]; DMF 50 μM 1h): 1.6
- R value (DMSO/DMF) ([7]; DMF 50 μM 2h): 2.1
- R value (DMSO/DMF) ([7]; DMF 50 μM 4h): 4.63
- R value (DMSO/DMF) ([8]; DMF 10 μM 4h): 2.1
- R value (DMSO/DMF) ([8]; DMF 25 μM 4h): 2.17
- R value (DMSO/DMF) ([8]; DMF 50 μM 2h): 4.57
- R value (DMSO/DMF) ([9]; DMF 10 μM 4h): 2.3
- R value (DMSO/DMF) ([9]; DMF 50 μM 1h): 1.29
- R value (DMSO/DMF) ([9]; DMF 50 μM 2h): 2.76
- R value (DMSO/DMF) ([9]; DMF 50 μM 4h): 4.24
